# Measured values published in US20210267944A1 (BioXcel Therapeutics, Inc., priority 2018, published 2021).
# “And” between values parts separate entries of the source, which are not always exact repeats. Equal values may be shown once. “Also recorded” adds a separate entry of the source. Where a name gives a salt, the structure may show the parent alone. Read-outs that look alike come from different tables or passages of the source.
# Test system: healthy, elderly (55-75 years of age) volunteers
# Experimental: Subjects in the initial cohorts were initially healthy, elderly (55-75 years of age) volunteers. Subjects in later cohort were elderly volunteers healthy except for having mild probable SDAT. Both sexes were included in all cohorts.
# Each infusion rate was administered for 30 minutes. After 30 minutes, the dose was increased by an additional 0.1 mcg/kg/hr until the subject achieved a predetermined level of sedation as assessed by the Richmond Agitation-Sedation Scale (RASS) or a pre-specified reduction in BP and/or HR. The dosing rate was adjusted for subsequent cohorts based on the results of preceding cohorts. Continuous assessment was made of the level of arousal, BP and HR. […] Statistics were descriptive and correlational in terms of pharmacodynamic and pharmacokinetic relationships.
# The participants in cohort 1 were designated by subject codes 11XX and 91XX, and those in cohort 2 were designated by subject codes 12XX. Time needed to resolve refers to the time from the cessation of the infusion to the resolution of the pharmacodynamic effect of the drug on either arousal or blood pressure and heart rate.
smiles,measurement,setting,value
Cc1cccc([C@H](C)c2cnc[nH]2)c1C [dexmedetomidine hydrochloride],time to mild sedation after starting the dose which produced the desired effect,Example 1A,≤ 30 min
same,subjects in whom mild sedation (RASS score of −1) was evident,"Example 1A, IV infusion 0.1-0.6 mcg/kg/hr",11/12
same,Efficacy (Primary/secondary end points): subjects reaching RASS-1,Healthy Volunteers Cohort 1,6/6 RASS-1
same,Range of efficacious dose of IV dexmedetomidine hydrochloride,"Healthy Volunteers Cohort 1, continuous infusion",0.3 to 0.5 µg/kg/h
same,Efficacy (Primary/secondary end points): subjects reaching RASS-1,Healthy Volunteers Cohort 2,5/6 RASS-1
same,Range of efficacious dose of IV dexmedetomidine hydrochloride,"Healthy Volunteers Cohort 2, continuous infusion",0.3 to 0.4 µg/kg/h
same,Endpoint,"healthy elderly volunteers, per subject, endpoint/stopping criterion reached",RASS −2; also recorded: RASS −1
same,IV infusion rate at which desired effect/stopping criteria achieved,"healthy elderly volunteers, per subject, rate raised every 30 min",0.3 mcg/kg/hr (4×) and 0.4 mcg/kg/hr (7×) and 0.5 mcg/kg/hr
same,effects on blood pressure and/or heart rate at exposure achieving mild sedation,in vivo,did not produce clinically meaningful effects on blood pressure and/or heart rate
same,tolerability,in vivo,well-tolerated
same,dose required by males compared to females,"p<0.02, Sign test",twice
same,optimal starting dose,results of cohorts 1 and 2,0.3 µg/kg/h
